Data: a compilation of properties of binary mixtures (doi:10.1021/je970101l)

Assay: excess molar enthalpy (molar enthalpy of mixing); xn = mol fraction of the nth substance listed
Details: 298.15 K, 100 kPa

C=COC(C)=O + COC(=O)OC
Details | excess molar enthalpy [kcal/mol]
x2 = 0.0437 | -0.001
x2 = 0.0838 | -0.00268
x2 = 0.1207 | -0.0039
x2 = 0.1546 | -0.00507
x2 = 0.2153 | -0.00722
x2 = 0.2679 | -0.00872
x2 = 0.3544 | -0.0104
x2 = 0.4226 | -0.0111
x2 = 0.5233 | -0.0111
x2 = 0.6222 | -0.0103
x2 = 0.8145 | -0.00571
x2 = 0.8682 | -0.00361
x2 = 0.8978 | -0.00253
x2 = 0.9294 | -0.00143
x2 = 0.9634 | -0.000645

CCCCCCOC(C)=O + COC(=O)OC
Details | excess molar enthalpy [kcal/mol]
x2 = 0.0755 | 0.0206
x2 = 0.1404 | 0.0382
x2 = 0.2462 | 0.0688
x2 = 0.3289 | 0.0899
x2 = 0.3951 | 0.104
x2 = 0.4949 | 0.116
x2 = 0.5665 | 0.12
x2 = 0.7462 | 0.101
x2 = 0.7967 | 0.0903
x2 = 0.8546 | 0.0698
x2 = 0.9216 | 0.0406
x2 = 0.94 | 0.0304
x2 = 0.9522 | 0.0261

CCCCCOC(C)=O + COC(=O)OC
Details | excess molar enthalpy [kcal/mol]
x2 = 0.0684 | 0.0139
x2 = 0.128 | 0.0272
x2 = 0.1804 | 0.0392
x2 = 0.2269 | 0.0502
x2 = 0.3057 | 0.0669
x2 = 0.3699 | 0.0808
x2 = 0.54 | 0.0954
x2 = 0.6378 | 0.093
x2 = 0.7254 | 0.0815
x2 = 0.7789 | 0.0722
x2 = 0.8409 | 0.0571
x2 = 0.8757 | 0.0476
x2 = 0.9337 | 0.0263
x2 = 0.9548 | 0.0179
x2 = 0.9769 | 0.00908

CCCCOC(C)=O + COC(=O)OC
Details | excess molar enthalpy [kcal/mol]
x2 = 0.0612 | 0.0117
x2 = 0.1153 | 0.022
x2 = 0.1636 | 0.0313
x2 = 0.2068 | 0.0397
x2 = 0.2812 | 0.0509
x2 = 0.3428 | 0.0586
x2 = 0.4389 | 0.0667
x2 = 0.5105 | 0.0688
x2 = 0.7578 | 0.0554
x2 = 0.8112 | 0.0454
x2 = 0.8622 | 0.0361
x2 = 0.9037 | 0.0263
x2 = 0.926 | 0.0203
x2 = 0.9494 | 0.0143
x2 = 0.9741 | 0.00765

CCCOC(C)=O + COC(=O)OC
Details | excess molar enthalpy [kcal/mol]
x2 = 0.0538 | 0.00789
x2 = 0.1021 | 0.0143
x2 = 0.1457 | 0.0196
x2 = 0.1853 | 0.0249
x2 = 0.2544 | 0.0311
x2 = 0.3127 | 0.0361
x2 = 0.4056 | 0.0413
x2 = 0.4764 | 0.0437
x2 = 0.5771 | 0.044
x2 = 0.6718 | 0.0409
x2 = 0.8912 | 0.0174
x2 = 0.9161 | 0.0134

CCOC(C)=O + COC(=O)OC
Details | excess molar enthalpy [kcal/mol]
x2 = 0.0426 | 0.00177
x2 = 0.0883 | 0.00289
x2 = 0.1269 | 0.00413
x2 = 0.1623 | 0.00504
x2 = 0.2252 | 0.00626
x2 = 0.3677 | 0.00832
x2 = 0.5376 | 0.00975
x2 = 0.6356 | 0.00956
x2 = 0.7772 | 0.00755
x2 = 0.823 | 0.00667
x2 = 0.9029 | 0.00406
x2 = 0.9331 | 0.00284
x2 = 0.9654 | 0.00146

COC(C)=O + COC(=O)OC
Details | excess molar enthalpy [kcal/mol]
x2 = 0.0729 | -0.000191
x2 = 0.1055 | -0.000574
x2 = 0.1359 | -0.0011
x2 = 0.2393 | -0.00237
x2 = 0.3206 | -0.00289
x2 = 0.3862 | -0.00313
x2 = 0.586 | -0.00232
x2 = 0.739 | -0.00098
x2 = 0.7906 | -0.000669
x2 = 0.8499 | -9.56e-05
x2 = 0.883 | 0.000167
x2 = 0.9189 | 0.000454
x2 = 0.9577 | 0.000215
